Series [1] deals with Male obese Zucker diabetic fatty (ZDF fa/fa) rats. The experiment in a line: Treatment of prediabetic ZDF rats by IP injection (plasma glucose, serum triglycerides). The note with it: IP injection 10 mg/kg once daily for three weeks, PEG 300. The class given is in vivo, rat. How it is done: Male obese Zucker diabetic fatty (ZDF fa/fa) rats were used to test the in vivo activity of compound 1. This animal model develops hyperglycemia and insulin resistance.
In this example, six-week-old male prediabetic ZDF rats (Charles River) are provided rat chow and water ad libidum. The obese rats are divided into a control and a treated groups (n=6 per subgroup).
The compound 1 is dissolved in PEG 300 and administrated by IP injection at a dose of 10 mg/kg once daily for a period of three weeks.
Glucose plasma level can be measured by the commercially available kit using the glucose oxydase method (Sigma Chemical Co.).
(§1) Assay of serum triglycerides may be performed enzymatically using a commercially available kit. In summary, the triglycerides are treated with a lipase in order to generate glycerol and fatty acids. In the presence of ATP, the glycerol is transformed by […] into glycerol-3-phosphate. The glycerol-3-phosphate is subsequently transformed into dihydroxyacetone in generating oxygenated water (H202) which may be detected by formation of quinoneimine in the presence of parachlorophenol, amino-4-antipyrin and peroxydase. The intensity of the quinoneimine coloration is subsequently measured at 505 nm. This coloration is proportional to the quantity of triglycerides present in the sample.

Another series concerns ZDF rats. The series can be described thus: Treatment of prediabetic ZDF rats by oral administration (plasma triglycerides). The series is classed as in vivo, rat. The procedure: as §1
Following the same experiments as in example 2.2, ZDF rats were used to evaluate the effect of the compound on the glycaemia and the plasma level of triglycerides using the experimental protocol described in example 2.2.
The compound was dissolved in PEG 300 and orally administrated to a series of 8 rats for 2 weeks.

Series [2] concerns TA100, TA98, TA 102, TA 1537 and TA 1535. The series can be described thus: AMES test, overall conclusion over all strains. The following applies: absence and presence of S-9. The series is classed as cell-based, Salmonella typhimuriu. An excerpt: Gene mutation can be evaluated in vitro, using amino-acid requiring strains of Salmonella typhimuriu. Different protocols for this test have been published (Ames B. N. et al Mutation Res. 1975, 31, 347-364, and Gatehouse D. et al Mutation Res. 1994, 312, 217-233). The principle of this bacterial reverse mutation test is that it detects mutations which revert mutations present in the test strains and restore the functional capability of the bacteria to synthesise an essential amino acid. The revertant bacteria are detected by their ability to grow in the absence of the amino acid required by the parent test strain.
In the present example, the guidelines OECD TG 471 (i.e. AMES Test) was used to detect gene mutation at different doses in the TA100, TA98, TA 102, TA 1537 and TA 1535.
Treatments covering a broad range of concentrations, separated by narrow intervals, were performed both in the absence and presence of metabolic activation (S-9) from Aroclor 1254 induced animals. The compound was formulated in anhydrous analytical grade dimethylsulphoxide (DMSO) and the highest concentration used in was determined following a preliminary cytotoxicity Range-Finder Experiment.

In the case of `COc1cc(O)c(/C=N/NC(=O)c2ccc3nccn3c2)c(OC)c1` [Compound 1, [1-(2-hydroxy-4,6-dimethoxy-phenyl)-methylidene]-imidazo[1,2-a]pyridine-6-carbohydrazide], in series [1], the circulating triglycerides result is on record as “significantly reduce” and the “plasma level of glucose” value is listed as “significantly reduces”. Also, the circulating triglycerides result with ZDF rats (administered orally, 2 weeks) was “significantly reduce”. Also, the “Reduction of plasma triglycerides” value in the series with ZDF rats (orally administrated for 2 weeks, versus untreated rats) amounted to 37.4%. In addition, the “Triglycerides, plasma level” value with ZDF rats (orally administrated in PEG 300 for 2 weeks, ZDF rats (n = 8)) stood at 1.02 ± 0.1 mM. Also, the “mutagenic activity in AMES test” value in series [2] is “does not exhibit mutagenic activity”.

Values taken from patent publication US20120277436A1, “PHENYLHYDRAZONE DERIVATIVES AND THEIR USE AS PHARMACEUTICALS” (priority 2009, published 2012).
